Measurements as given in patent US12721818B2, “Compositions and methods for delivery of RNA” (Rejuvenation Technologies Inc., priority 2021, dated 2026).

Test: pK of the ionizable lipid (Table 6A)
Format: physicochemical
Conditions: ionizable lipid of the Table 6A formulation

## CCCCCCCC/C=C\CCCCCCCC(=O)Oc1ccc(CC(=O)OCCC2CCN(CCSSCCN3CCC(CCOC(=O)Cc4ccc(OC(=O)CCCCCCC/C=C\CCCCCCCC)cc4)CC3)CC2)cc1 [SS-OP]
  pK: ~6.4
